Reference: ChEMBL document CHEMBL1130188, “Synthesis and stereochemical structure-activity relationships of 1,3-dioxoperhydropyrido[1,2-c]pyrimidine derivatives: potent and selective cholecystokinin-A receptor antagonists” (J Med Chem, 1997)

What was measured:
[1] = biological target: T1, Gastrin/cholecystokinin type B receptor (Rattus norvegicus, UniProt P30553); test: Inhibition of [3H]- pCCK-8 binding to Cholecystokinin type B receptor of rat cerebral cortex membranes; format: cell membranes, Membrane
T1 sequence (P30553 whole entry): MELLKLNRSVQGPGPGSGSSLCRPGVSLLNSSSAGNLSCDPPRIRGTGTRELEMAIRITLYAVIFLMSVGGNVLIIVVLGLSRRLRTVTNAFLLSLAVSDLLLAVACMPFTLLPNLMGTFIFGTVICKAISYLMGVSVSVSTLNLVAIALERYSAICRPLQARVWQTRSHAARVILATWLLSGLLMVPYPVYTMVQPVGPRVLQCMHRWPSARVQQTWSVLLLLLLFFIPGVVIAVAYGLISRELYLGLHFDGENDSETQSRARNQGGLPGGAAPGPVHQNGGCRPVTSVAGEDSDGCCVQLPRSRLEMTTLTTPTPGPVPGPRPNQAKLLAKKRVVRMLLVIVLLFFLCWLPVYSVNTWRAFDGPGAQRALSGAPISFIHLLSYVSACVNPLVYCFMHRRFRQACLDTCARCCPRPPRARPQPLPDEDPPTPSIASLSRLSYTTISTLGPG

[2] = biological target: T2, Cholecystokinin receptor type A (Rattus norvegicus, UniProt P30551); test: Inhibition of [3H]pCCK-8 specific binding to Cholecystokinin type A receptor of rat pancreas
T2 sequence (P30551 whole entry): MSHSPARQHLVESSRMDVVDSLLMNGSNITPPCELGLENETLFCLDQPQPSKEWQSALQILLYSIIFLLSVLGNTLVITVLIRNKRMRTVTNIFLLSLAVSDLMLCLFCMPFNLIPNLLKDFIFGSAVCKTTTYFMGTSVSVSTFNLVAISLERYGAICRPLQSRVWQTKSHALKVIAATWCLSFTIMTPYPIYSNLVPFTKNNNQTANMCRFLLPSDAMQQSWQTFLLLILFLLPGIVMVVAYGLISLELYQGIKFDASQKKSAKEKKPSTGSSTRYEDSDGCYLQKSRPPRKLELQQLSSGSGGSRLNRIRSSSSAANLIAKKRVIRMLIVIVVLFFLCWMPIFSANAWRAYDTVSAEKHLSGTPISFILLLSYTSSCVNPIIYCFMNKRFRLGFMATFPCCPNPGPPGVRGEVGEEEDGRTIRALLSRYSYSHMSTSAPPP

Rattus norvegicus = species on record: Rattus norvegicus; test: Compound was tested for inhibition of amylase release stimulated by CCK-8 (0.5 nM) in dispersed pancreatic acini.

CC(C)(C)OC(=O)N[C@H](Cc1c[nH]c2ccccc12)C(=O)N[C@@H]1CCCN2C(=O)N(Cc3ccccc3)C(=O)C[C@H]12
Ki [1]: > 5 µM

CC(C)(C)OC(=O)N[C@H](Cc1c[nH]c2ccccc12)C(=O)N[C@H]1CCCN2C(=O)N(Cc3ccccc3)C(=O)C[C@H]12
Ki [1]: > 5 µM | Ki [2]: > 5 µM

CN1C(=O)[C@H](NC(=O)c2cc3ccccc3[nH]2)N=C(c2ccccc2)c2ccccc21
IC50 (Rattus norvegicus): 0.0254 µM

CC(C)(C)OC(=O)N[C@@H](Cc1c[nH]c2ccccc12)C(=O)N[C@@H]1CCCN2C(=O)N(Cc3ccccc3)C(=O)C[C@H]12
IC50 (Rattus norvegicus): 0.201 µM | Ki [1]: 2.73 µM | Ki [2]: 0.0106 µM

CC(C)(C)OC(=O)N[C@H](Cc1c[nH]c2ccccc12)C(=O)N[C@@H]1CCCN2C(=O)N(Cc3ccccc3)C(=O)C[C@@H]12
Ki [1]: 1.89 µM | Ki [2]: > 5 µM

CC(C)(C)OC(=O)N[C@@H](Cc1c[nH]c2ccccc12)C(=O)N[C@H]1CCCN2C(=O)N(Cc3ccccc3)C(=O)C[C@H]12
Ki [1]: > 5 µM | Ki [2]: 0.572 µM

COC(=O)[C@@]1(Cc2ccccc2)C[C@@H]2[C@@H](NC(=O)[C@H](Cc3c[nH]c4ccccc34)NC(=O)OC(C)(C)C)CCCN2C1=O
Ki [1]: > 5 µM

CC(C)(C)OC(=O)N[C@@H](Cc1c[nH]c2ccccc12)C(=O)N[C@H]1CCCN2C(=O)N(Cc3ccccc3)C(=O)C[C@@H]12
IC50 (Rattus norvegicus): 0.0213 µM | Ki [1]: > 5 µM | Ki [2]: 0.00062 µM

CC(C)(C)OC(=O)N[C@H](Cc1c[nH]c2ccccc12)C(=O)N[C@H]1CCCN2C(=O)N(Cc3ccccc3)C(=O)C[C@@H]12
Ki [1]: > 5 µM | Ki [2]: 0.298 µM

CC(C)(C)OC(=O)N[C@@H](Cc1c[nH]c2ccccc12)C(=O)N[C@@H]1CCCN2C(=O)N(Cc3ccccc3)C(=O)C[C@@H]12 [IQM-95333]
Ki [1]: 2.91 µM | Ki [2]: 2.89 µM

COC(=O)[C@]1(Cc2ccccc2)C[C@@H]2[C@@H](NC(=O)[C@@H](Cc3c[nH]c4ccccc34)NC(=O)OC(C)(C)C)CCCN2C1=O
Ki [1]: 1.56 µM | Ki [2]: > 5 µM
